Data published in patent publication US11098077B2, “Locked nucleic acid cyclic dinucleotide compounds and uses thereof” (CHINOOK THERAPEUTICS, INC., priority 2016, dated 2021).

Assays:
[1] = target: T1, hSTING HAQ allele in THP1-Dual cells (Homo sapiens, UniProt Q86WV6, G230A/H232R/R293Q/R71H); assay: THP1-Dual IRF-3 inducible secreted luciferase reporter assay (type I interferon activation), without digitonin; type: cell-based
T1 construct: a human monocyte cell line containing the hSTING HAQ allele; host or cells: THP1-Dual cells
Protocol: After 30 minutes, cells were washed and fresh RPMI media containing 10% FBS was added, and cells were incubated at 37° C. with 5% CO2 Cell culture supernatants from each sample were collected after overnight incubation, and 10 μL of the cell culture supernatants was added to 50 μL QUANTI-Luc reagent (Invivogen). Type I interferon activation was determined by measuring secreted luciferase levels on a SpectraMax M3 spectrophotometer (Molecular Devices).

[2] = test system: SIY-specific CD8+ T cells in splenocytes; assay: FACS of splenocytes with SIY pentamer (SIY+ CD8+ T cells); type: in vivo, C57BL/6 mice; details: day 7 post IT injection
Protocol: (§1) Tumors were measured twice weekly.
Data analysis was conducted with FlowJo software (Tree Star).

[3] = test system: serum TNF-α, IFN-γ, IL-6, MCP-1; assay: Systemic serum pro-inflammatory cytokines by Mouse Inflammation Cytometric Bead Array; details: from serum cytokines six hours post-IT injection
Protocol: (§5) To assess the ability of the LNA-CDN molecules to promote anti-tumor immunity in aggressive murine tumor models, 6-8 week old female C57BL/6 mice (8 mice per group) were implanted with B16.SIY melanoma tumor cells (1×10^6 cells in 100 μL PBS). […] Treatments began when tumors reached a volume of approximately 100 mm^3, on day 9 post tumor implantation. The compounds were administered by a single subcutaneous injection into the center of the tumor (IT) using a 27 gauge needle. Tumors were measured twice weekly.

hSTING HAQ allele = target: T2, hSTING HAQ allele (Homo sapiens, UniProt Q86WV6, G230A/H232R/R293Q); assay: Differential scanning fluorometry (DSF) binding to purified STING AA140-379, HAQ allele; details: ligand 1 mM, 1 mg/ml STING AA140-379
T2 construct: DNA encoding amino acids 140-379 (amino acid numbering corresponding to Swiss Prot Q86WV6); 6xHIS (N, cleaved yes); SUMO (N, cleaved yes); made in house; host or cells: Rosetta2 (DE3) E. coli
Protocol: (§2) Cells were grown in lysogeny broth at 37° C. until a […] absorbance of 0.6 was reached. […] Cell pellets were re-suspended on ice in a buffer containing 50 mM Tris hydrochloride (Tris-HCl) pH 7.5, 500 mM sodium chloride (NaCl), 20 mM imidazole, 10% glycerol, 1 mM tris(2-carboxyethyl)phosphine hydrochloride (TCEP) and protease inhibitor tablet (Pierce) (Buffer A). Cells were lysed using an S-450D sonifier (Emmerson industrial) on ice. […] Protein was aliquoted, flash frozen in liquid nitrogen and stored at −80° C. until use.
(§3) The protein is heated in the presence of a dye that binds to and fluoresces in hydrophobic environments. The protein is thermally denatured by heating resulting in increased dye binding to the unfolded protein and fluorescence. The temperature midpoint (Tm) of a proteins denaturation is established by calculating the half maximal value of the denaturation curve. The temperature midpoint of the protein in the presence of a ligand is directly related to the affinity of the ligand for the protein and therefore its ability to stabilize the protein at higher temperatures.
(§4) Each of wild type hSTING, HAQ allele hSTING and REF allele hSTING were used with each of the reference compounds and compounds of the invention as listed in Table 4. Samples were placed in hard shell PCR plate (Bio-Rad). The fluorescence as a function of temperature was recorded in a CFX 96 real time PCR machine (Bio-Rad) reading on the HEX channel, excitation 450-490, emission 560-580 nm. The temperature gradient was from 15-80° C. ramping 0.5° C. per 15 seconds and recording every 0.5° C. After subtraction of the background signal from a sample lacking protein and ligand. The midpoint temperature (Tm) was calculated by fitting the curves of the fluorescence as a function of temperature to a Boltzmann sigmoidal function (Graph Pad Prism).

[4] = test system: serum TNF-α, IFN-γ, IL-6, MCP-1; details: mouse, in vivo
Protocol: as §5

[5] = test system: B16.SIY melanoma tumor cells; assay: B16.SIY melanoma tumor model, intra-tumoral injection (Example 13); type: in vivo, C57BL/6 mice; details: for tumor efficacy compared to reference compound 2′3′-RR-(A)(A): 1 μg dose; for tumor inhibition (tumor volume) compared to HBSS: single IT injection, 0.1, 1, 10 and 100 μg
Protocol: as §1

hSTING REF allele = target: T3, hSTING REF allele (Homo sapiens, UniProt Q86WV6); assay: Differential scanning fluorometry (DSF) binding to purified STING AA140-379, REF allele; details: for hSTING Tm Shift REF: DSF, ligand 1 mM, 1 mg/ml STING AA140-379
T3 construct: DNA encoding amino acids 140-379 (amino acid numbering corresponding to Swiss Prot Q86WV6); 6xHIS (N, cleaved yes); SUMO (N, cleaved yes); made in house; host or cells: Rosetta2 (DE3) E. coli
Protocol: as §2, §3, §4

hSTING WT = target: T4, hSTING WT (Homo sapiens, UniProt Q86WV6, H232R); assay: Differential scanning fluorometry (DSF) binding to purified STING AA140-379, wild type; details: for hSTING Tm Shift WT: DSF, ligand 1 mM, 1 mg/ml STING AA140-379
T4 construct: DNA encoding amino acids 140-379 (amino acid numbering corresponding to Swiss Prot Q86WV6); 6xHIS (N, cleaved yes); SUMO (N, cleaved yes); made in house; host or cells: Rosetta2 (DE3) E. coli
Protocol: as §2, §3, §4

[6] = test system: SIY-specific T cells in splenocytes; assay: IFNγ ELISPOT of splenocytes stimulated with SIY peptide; type: in vivo, C57BL/6 mice; details: day 7 post IT injection; for IFNγ ELISPOT T cell responses compared to reference compound 2′3′-RR-(A)(A): 1 μg dose
B16.SIY melanoma cells [7] = assay: B16.SIY melanoma tumor model in STING-deficient Goldenticket mice (Example 14); type: in vivo; details: STING-deficient GT mice; single IT injection, 100 μg
Protocol: as §1

B16.SIY melanoma cells [8] = assay: B16.SIY melanoma tumor model in WT mice (Example 14); type: in vivo, C57BL/6 (WT) mice; details: single IT injection, 100 μg
Protocol: as §1

[9] = for all three alleles (WT, HAQ, REF)

T3 sequence (Q86WV6 140-379): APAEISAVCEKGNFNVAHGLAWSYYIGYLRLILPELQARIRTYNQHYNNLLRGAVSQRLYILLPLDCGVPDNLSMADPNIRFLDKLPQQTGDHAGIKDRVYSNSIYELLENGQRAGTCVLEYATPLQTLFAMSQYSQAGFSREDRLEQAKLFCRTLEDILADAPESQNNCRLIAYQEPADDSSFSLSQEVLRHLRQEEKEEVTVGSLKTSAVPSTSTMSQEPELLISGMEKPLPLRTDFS
T4 sequence (Q86WV6 140-379 H232R limits assumed): as the sequence (Q86WV6 140-379) above, with H93R counted along it
T2 sequence (Q86WV6 140-379 G230A/H232R/R293Q limits assumed): as the sequence (Q86WV6 140-379) above, with G91A, H93R, R154Q counted along it
T1 sequence (Q86WV6 whole entry R71H/G230A/H232R/R293Q): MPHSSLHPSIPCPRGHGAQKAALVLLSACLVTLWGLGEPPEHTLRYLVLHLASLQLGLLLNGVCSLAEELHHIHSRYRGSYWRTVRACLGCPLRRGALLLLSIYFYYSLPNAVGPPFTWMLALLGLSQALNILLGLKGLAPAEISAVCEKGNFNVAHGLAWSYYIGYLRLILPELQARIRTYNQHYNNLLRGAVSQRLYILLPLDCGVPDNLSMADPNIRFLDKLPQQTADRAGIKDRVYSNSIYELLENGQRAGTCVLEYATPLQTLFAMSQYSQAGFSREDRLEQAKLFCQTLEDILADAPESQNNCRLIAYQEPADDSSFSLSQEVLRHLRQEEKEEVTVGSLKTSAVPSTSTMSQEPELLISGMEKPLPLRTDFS

Compound | EC50 [1] | range of dose responses (therapeutic window for anti-tumor immunity) [2] | safety profile compared to reference compound 2′3′-RR-(A)(A) [3] | hSTING Tm Shift HAQ (hSTING HAQ allele) | systemic cytokines compared with 2′3′-RR-(A)(A) [4] | tumor efficacy compared to reference compound 2′3′-RR-(A)(A) ([5]; single IT injection) | tumor inhibition (tumor volume) compared to HBSS [5] | hSTING Tm Shift REF (hSTING REF allele) | hSTING Tm Shift WT (hSTING WT) | IFNγ ELISPOT T cell responses compared to reference compound 2′3′-RR-(A)(A) [6] | IFNγ ELISPOT responses compared to HBSS ([6]; all doses tested (0.1, 1, 10, 100 μg)) | range of efficacy (doses giving IFNγ ELISPOT response) [6] | anti-tumor effect (tumor volume) (B16.SIY melanoma cells [7]) | tumor rejection (tumor volume) compared to HBSS (B16.SIY melanoma cells [8]) | tumor regression ([5]; single IT injection, 100 μg dose) | Tm shift compared with 2′3′-RR-(A)(A) and 2′3′-(G)(A) (hSTING REF allele; for the REF allele) | Tm shift compared with natural ligand 2′3′-(G)(A) (hSTING WT; [9]) | Tm shift compared with reference compound 2′3′-RR-(A)(A) (hSTING WT; [9]) | T cell production of IFNγ in response to SIY peptide stimulation, compared to HBSS ([6]; 0.1, 1 and 10 μg doses)
Nc1ncnc2c1ncn2[C@@H]1O[C@@H]2CO[P@@](=O)(S)O[C@H]3[C@H]4OC[C@]3(CO[P@](=O)(S)O[C@@H]1[C@@H]2O)O[C@H]4n1cnc2c(N)ncnc21 [Compound 10c] | > 150 µM | a broader range of dose responses | superior safety profile | 10.4 °C | significantly lower systemic cytokines than 2′3′-RR-(A)(A) | comparable tumor efficacy as compared to the reference compound 2′3′-RR-(A)(A) | potent tumor inhibition as compared to HBSS, in a dose-dependent manner | 5.0 °C | 6.5 °C | comparable responses | significantly higher responses | an even broader range of efficacy than Compound 5a |  |  |  |  |  |  | 
Nc1nc2c(ncn2[C@@H]2O[C@@H]3CO[P@@](=O)(S)O[C@H]4[C@H]5OC[C@]4(CO[P@](=O)(S)O[C@@H]2[C@@H]3F)O[C@H]5n2cnc3c(N)ncnc32)c(=O)[nH]1 [Compound 15c, 2′3′-SR-(3′F-G)(2′O,4′C-LNA-A)] |  |  |  |  |  |  |  |  |  |  |  |  | no anti-tumor effect | complete tumor rejection |  |  |  |  | 
Nc1ncnc2c1ncn2[C@@H]1O[C@@]23CO[C@@H]1[C@@H]2O[P@](=O)(S)OC[C@@]12CO[C@@H]([C@H](n4cnc5c(N)ncnc54)O1)[C@@H]2O[P@](=O)(S)OC3 [Compound 5a] | 41.6 µM |  | comparable safety profile | 27.6 °C |  | comparable tumor efficacy as compared to the reference compound 2′3′-RR-(A)(A) | potent tumor inhibition as compared to HBSS, in a dose-dependent manner | 10.6 °C | 16.8 °C | comparable T cell responses |  |  |  |  | complete tumor regression | greater Tm shift than both 2′3′-RR-(A)(A) and 2′3′-(G)(A) | greater Tm shift than the natural ligand 2′3′-(G)(A) | comparable to or greater than that of the reference compound 2′3′-RR-(A)(A) | significantly higher T cell production of IFNγ
